The text below walks through data of patent publication US7604982B2, “High-throughput screening method for intergrin antagonist and new peptide screened therefrom” (Proteogen Inc., priority 2003, dated 2009).

The test system of test [1] is human malignant melanoma. The settings on record: cited from earlier work.
Test [2] addresses T1, integrin αvβ3-vitronectin interaction (Homo sapiens, UniProt P05106+P06756).
T1 construct: purchased Chemicon International, Inc. (CA, USA)
Kind of test: Competitive inhibition of integrin αvβ3-vitronectin interaction on integrin microarray (ProteoChip). It is filed as binding. The following applies: for IC50: half-maximal inhibition concentration relative to control without peptides, ND means no activity was detected; for inhibition of integrin αvβ3-vitronectin interaction (relative fluorescence intensity): vitronectin 100 ng/ml labeled with Cy-3, colour scale white highest, blue lowest. An excerpt:
ProteoChip™ (Proteogen, Inc., Seoul, South Korea) was used as a protein chip and integrins were spotted on the ProteoChip™ (Proteogen, Inc., Seoul, South Korea) with the microarrayer (CM-1000; Proteogen, Inc., Seoul, South Korea) to fabricate integrin receptor microarray (See Lee, Y. S. et al.: ProteoChip: a highly sensitive protein microarray proposed by a novel method of protein immobilization for application of protein-protein interaction studies, Proteomics 2003; 3: 2289-2304). Integrin α11bβ3 was purified to homogeneity by GRGDSPK-Sepharose column chromatography from the platelet (See Kang I. C. and Kim D. S., Analysis of potent glycoprotein IIb-IIIa antagonist from natural sources. J Biochem Mol Biol 1998; 31: 515-518), and Integrin αvβ3 was commercially obtained from Chemicon International, Inc. (CA, USA).
Integrins (40 μg/mL) diluted with a phosphate-buffered saline (PBS) solution containing 10 mM β-octylthioglucopyranoside, 1.0 mM CaCl2, 11.0 mM MgCl2, and 30% glycerol were spotted and incubated at 37° C. for 3 hours, and then the remaining integrins after binding were washed with 0.5% PBST (PBS containing 0.5% Tween-20). The prepared integrin microarray was stored at 4° C. until before use. This integrin microarray (integrin-binding protein chip) was used for high-throughput screening of integrin receptor antagonist (See FIG. 1).
Mixtures of ligand protein (vitronectin 100 ng/ml) labeled with fluorescence (Cy-3) and known integrin antagonists such as disintegrins (echistatin 250 μg/ml, flavoridin 250 μg/ml, kistrin 250 μg/ml, and salmosin 2.6 ng/ml), a monoclonal antibody (mAb) against integrin 11.0 mg/ml, and various concentrations of synthetic RGD peptides (echistatin, flavoridin, kistrin: Sigma-Aldrich, USA; Salmosin: isolated and purified from recombinant E. Coli; monoclonal antibody against integrin: Chemicon International, Inc., USA; synthetic ROD peptides: synthesized in the Korea Research Institute of Bioscience and Biotechnology, South Korea) were dropped on the integrin receptor of the integrin αvβ3-binding protein chip prepared in Example 1 by using micropipette or microarrayer (CM-1000; Proteogen, Inc., Seoul, South Korea) and then were reacted in a oven of 37° C. and over 75% humidity for 4-12 hours. After reaction, those were washed for about 10 minutes with 0.5% PBST containing 3% BSA. Competitive inhibitory abilities of antagonists were measured by analyzing the degree of ligand binding as relative fluorescence intensity with a fluorescence scanner.
Antagonists used in FIG. 4 are already known as antagonistic material of integrin αvβ3-vitronectin. This is also a result analyzing whether mixing antagonists and vitronectin labeled with fluorescence inhibit or not the interaction between integrin αvβ3 and vitronectin. Control are the group having only vitronectin labeled with fluorescence without antagonists and the other groups are the results performed with antagonists and peptides including the amino acid sequence of RGE. The fluorescence intensity in FIG. 4 is expressed as rainbow colors like the explanation of FIG. 3. […] However, in case of groups having antagonists, antagonists inhibited the interaction between integrin αvβ3 and vitronectin, that is, integrin αvβ3 didn't bind to vitronectin, which made the color of fluorescence blue, the lowest color.
Mixtures of ligand protein (Fibrinogen 100 ng/ml and vitronectin 100 ng/ml) labeled with fluorescence (Cy-3) and 114 peptide pools from peptide library were dropped on the integrin receptor of integrin αvβ3-binding protein chip prepared in Example 1 by using micropipette or microarrayer (CM-1000; Proteogen, Inc., Seoul, South Korea) and then were reacted in oven of 37° C. and over 75% humidity for 4-12 hours. After reaction, those were washed for about 10 minutes with 0.5% PBST containing 3% BSA. […]

Test [3] deals with human umverical vein endothelial cell (HUVEC). In words: HUVEC migration assay (Boyden chamber, bFGF chemoattractant). The settings on record: bFGF-induced, 4 hours at 37° C., FIG. 9. It is filed as cell-based. On the procedure: HUVE cell was cultured in M199 medium containing 10% fetal calf serum and 3 ng/ml bFGF. This cell was cultured in the control medium (M199 containing 0.1% BSA) for 16 hours to be used in migration assay, and then 3×10^4 cells were added to upper chamber of porous membrane coated with gelatin (40 μM) and inserted in Boyden chamber. Samples were treated at the same time in a concentration-dependent manner. Chemoattractant, bFGF, was added in the bottom chamber to induce HUVE cell to migrate into lower chamber. The chamber was incubated for 4 hours at 37° C. and then the membrane was removed. After fixation, cell was stained with crystal violet and cells migrating across the membrane were counted with a microscope.

The test system of test [4] is angiogenesis in chick chorioallantoic membrane. Kind of test: Inhibition assay of angiogenesis in a chick chorioallantoic membrane. It is filed as in vivo. The settings on record: in the presence of bFGF, FIG. 10. How it is done:
FIG. 10 is the result of analyzing effects of antagonistic peptides of integrin αvβ3 on angiogenesis in a chick chorioallantoic membrane. In vivo angiogenesis inhibition test was performed as one of biological characterization researches of the antagonistic peptides. A, positive control, is the result of the group treated with only bFGF without peptide; B, negative control, is the result of the group having only cells without bFGF; C is the result of the group treated with GRGDSP peptide in the presence of bFGF; D is the result of the group treated with HGDVHK peptide in the presence of bFGF; E is the result of the group treated with HSDVHK peptide in the presence of bFGF; and F is the result of the group treated with HHDVHK peptide in the presence of bFGF.
Fertilized eggs was purchased from Pulmuone Corp. (South Korea), Thermanox coverslips for sample loading was purchased from Nunc Company (USA), and 10% Intralipose (fat emulsion) for observation and syringes were purchased from Green Cross Company (South Korea).
On day 1 (0-day embryo): Fertilized egg was incubated in a incubator of 37-38° C. and over 90% humidity. The temperature and humidity were often checked to make sure the above conditions.
On day 3 (2-day embryo): The peaked end of fertilized egg was cracked with a knife. […] The pore was sealed with transparent tape to block infection and dryness of the fertilized egg. The egg was incubated again with the direction of pore toward the bottom.
On day 4 (3-day embryo): The window which diameter is 2-3 cm was made in the direction of air sac of fertilized egg (in the opposite direction of the above syringe pore) and the eggs confirmed as fertilized egg were sealed with broad transparent tape and incubated again. For reference, round window was made as follows. A round shape of scratch was made on the eggshell with a sharp knife and eggshell then was taken away with a pincette.
On day 5 (4.5-day embryo): CAM is usually created at this time and the diameter is about 2-5 mm. […]

Test [5] concerns Lewis lung carcinomas cells. Kind of test: Growth inhibition assay of subcutaneous solid tumor. It is filed as in vivo, C57BL/6 mice. The settings on record: 100 mg/kg mouse, subcutaneous injection once daily, FIGS. 11-13. How it is done:
Lewis lung carcinomas cells (1×10^6) were injected subcutaneously into dorsal midline of C57BL/6 mice. When tumors were 100-200 mm^3 in volume, the mice were randomized into three groups. Two groups received HGDVHK or HSDVHK (100 mg/kg mouse), respectively, in PBS via subcutaneous injection at a site distant from the tumor once daily. […] The sizes of the tumors in all groups were measured at the same time everyday. The experiments were terminated when the control mice began to die.

Test [6] concerns blood endothelial alpha(5) and alpha(v)-integrin. The settings on record: endothelial cell migration; cited from earlier work.

Residues, ends and D or L forms follow the SMILES beside them.

Take `CC(C)[C@H]1C(=O)N[C@@H](CCCN=C(N)N)C(=O)NCC(=O)N[C@@H](CC(=O)O)C(=O)N[C@H](Cc2ccccc2)C(=O)N1C` [EMD121974]: the “angiogenesis inhibition and cancer growth suppression in animal test” value in test [1] was “activity inhibiting angiogenesis and thus suppressing cancer growth”.
As to `CC(C)C[C@H](NC(=O)[C@H](CC(=O)O)NC(=O)CNC(=O)[C@@H](N)Cc1c[nH]cn1)C(=O)N[C@@H](Cc1c[nH]cn1)C(=O)N[C@@H](CCCCN)C(N)=O` [HGDLHK-NH2] (H-HGDLHK-NH2; N-terminus assumed), the IC50 in test [2] is 0.0436 nM. This counts as picomolar.
Consider `CC(C)[C@H](NC(=O)[C@H](CC(=O)O)NC(=O)CNC(=O)[C@@H](N)Cc1c[nH]cn1)C(=O)N[C@@H](Cc1c[nH]cn1)C(=O)N[C@@H](CCCCN)C(N)=O` [HGDVHK-NH2] (H-HGDVHK-NH2; N-terminus assumed), for which, in test [2], the IC50 was 0.0647 nM and the “inhibition of integrin αvβ3-vitronectin interaction (relative fluorescence intensity)” value (from here on “inhibition … (relative fluorescence intensity)”) is “stronger inhibitory activity in integrin αvβ3-specific inhibitory test than GRGDSP”. Further, the “inhibition of HUVEC migration” value in test [3] is “significantly inhibited”. Also, the “inhibitory effect on CAM angiogenesis” value in test [4] is “showed different inhibitory effects”.
`CC(C)C[C@H](NC(=O)CNC(=O)[C@@H](N)Cc1c[nH]cn1)C(=O)N[C@H](C(=O)N[C@@H](Cc1c[nH]cn1)C(=O)N[C@@H](CCCCN)C(N)=O)C(C)C` [HGLVHK-NH2] (H-HGLVHK-NH2; N-terminus assumed) had an IC50 in test [2] of 0.00353 nM. This lies in the picomolar range.
Turning to `CC(C)C[C@H](NC(=O)[C@H](CC(C)C)NC(=O)[C@H](Cc1c[nH]cn1)NC(=O)[C@@H](N)Cc1c[nH]cn1)C(=O)N[C@@H](Cc1c[nH]cn1)C(=O)N[C@@H](CCCCN)C(N)=O` [HHLLHK-NH2] (H-HHLLHK-NH2; N-terminus assumed), the IC50 in test [2] was 0.00434 nM.
On the same count and under the same terms, the figure for `CC(C)C[C@H](NC(=O)[C@H](Cc1c[nH]cn1)NC(=O)[C@@H](N)Cc1c[nH]cn1)C(=O)N[C@H](C(=O)N[C@@H](Cc1c[nH]cn1)C(=O)N[C@@H](CCCCN)C(N)=O)C(C)C` [HHLVHK-NH2] (H-HHLVHK-NH2; N-terminus assumed) is 0.407 nM.
As for `CC(C)[C@H](NC(=O)[C@H](CC(=O)O)NC(=O)[C@H](CO)NC(=O)[C@@H](N)Cc1c[nH]cn1)C(=O)N[C@@H](Cc1c[nH]cn1)C(=O)N[C@@H](CCCCN)C(N)=O` [HSDVHK-NH2] (H-HSDVHK-NH2; N-terminus assumed), in test [2], the IC50 was 0.00241 nM and the “inhibition … (relative fluorescence intensity)” value is recorded as “stronger inhibitory activity in integrin αvβ3-specific inhibitory test than GRGDSP”. For the same molecule, the “inhibition of HUVEC migration” value in test [3] is given as “significantly inhibited”. Besides, in test [4], the “inhibitory effect on CAM angiogenesis” value is given as “showed different inhibitory effects”. In addition, the “growth of solid tumor” value in test [5] is “largely suppressed”.
On to `CC(C)C[C@H](NC(=O)[C@H](CO)NC(=O)[C@@H](N)Cc1c[nH]cn1)C(=O)N[C@H](C(=O)N[C@@H](Cc1c[nH]cn1)C(=O)N[C@@H](CCCCN)C(N)=O)C(C)C` [HSLVHK-NH2] (H-HSLVHK-NH2; N-terminus assumed), for which the IC50 in test [2] was 0.064 nM.
HHDVHK [HHDVHK-NH2]: the “inhibition … (relative fluorescence intensity)” value in test [2] is given as “didn't reveal any inhibitory activity”. Besides, the “inhibition of HUVEC migration” value in test [3] was “had little effect”. For the same molecule, in test [4], the “inhibitory effect on CAM angiogenesis” value is on record as “had little effect”.

B1: recombinant human endostatin: recombinant human endostatin interacting with endothelial alpha(5) and alpha(v)-integrin (protein, UniProt P39060 1572-1754, looked up)
Endostatin: HSHRDFQPVLHLVALNSPLSGGMRGIRGADFQCFQQARAVGLAGTFRAFLSSRLQDLYSIVRRADRAAVPIVNLKDELLFPSWEALFSGSEGPLKPGARIFSFDGKDVLRHPTWPQKSVWHGSDPNGRRLTESYCETWRTEAPSATGQASSLLGGRLLGQSAASCHHAYIVLCIENSFMTASK
modifications: Endostatin
Regarding B1, the “inhibition of integrin-dependent endothelial function” value in test [6] is listed as “inhibit integrin-dependent endothelial function such as endothelial cell migration”.
